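Tested at 5 concentrations; 48 h exposure; 96-well plates; endpoints linearly interpolated, else capped at highest concentration. Here, GI50 denotes the concentration required for 50% inhibition of growth. TGI denotes the concentration required for complete inhibition of growth.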
Key:
Assay in all cases: NCI anticancer screen, dose series, 48 h
HOP-62 NSCLC = system: HOP-62 NSCLC
HCT-15 colon = system: HCT-15 colon
UO-31 renal = system: UO-31 renal
SNB-19 CNS = system: SNB-19 CNS
NCI-H522 lung = system: NCI-H522 lung
NCI/ADR-RES ovarian = system: NCI/ADR-RES ovarian
HL-60(TB) leukemia = system: HL-60(TB) leukemia
TK-10 renal = system: TK-10 renal
HT29 colon = system: HT29 colon
OVCAR-5 ovarian = system: OVCAR-5 ovarian

| SMILES | GI50 (HOP-62 NSCLC) [µM] | TGI (HOP-62 NSCLC) [µM] | GI50 (HCT-15 colon) [µM] | TGI (HCT-15 colon) [µM] | GI50 (UO-31 renal) [µM] | TGI (UO-31 renal) [µM] | GI50 (SNB-19 CNS) [µM] | TGI (SNB-19 CNS) [µM] | GI50 (NCI-H522 lung) [µM] | TGI (NCI-H522 lung) [µM] | GI50 (NCI/ADR-RES ovarian) [µM] | TGI (NCI/ADR-RES ovarian) [µM] | GI50 (HL-60(TB) leukemia) [µM] | TGI (HL-60(TB) leukemia) [µM] | GI50 (TK-10 renal) [µM] | TGI (TK-10 renal) [µM] | GI50 (HT29 colon) [µM] | TGI (HT29 colon) [µM] | GI50 (OVCAR-5 ovarian) [µM] | TGI (OVCAR-5 ovarian) [µM] |
| --- | --- | --- | --- | --- | --- | --- | --- | --- | --- | --- | --- | --- | --- | --- | --- | --- | --- | --- | --- | --- |
| Nc1nn(C(=O)Nc2ccc(Cc3ccccc3)cc2)c2ccc(Cl)cc12 | 1.33 | 14.8 | 0.0821 | > 100 | 5.9 | 82.7 | 18.1 | 51.7 | 7.96 | > 100 | 7.89 | 51.6 | 6.57 | 44.6 | 17.7 | 50.3 | 3.54 | 27.3 | 22.7 | > 100 |
| COc1ccc(Nc2nc(NCc3ccccc3)c3ccccc3n2)cc1 | 10.1 | 22.4 | 3.69 | 19 | 5.09 | 19.8 | 9.72 | 24.1 | 3.66 | 16.1 | 4.14 | 23.1 | 2.04 | 4.2 | 8.45 | 22 | 3.48 | 11.1 | 10.1 | 28 |
| Cc1ccccc1NC(=O)N/C(N)=N/c1nc2ccccc2s1 | 0.11 | > 100 | 0.0434 | > 100 | 1.3 | > 100 | 0.104 | > 100 | 0.0427 | > 100 | 0.0372 | 5.84 | 0.0285 | 0.15 | 3.78 | > 100 | 0.039 | > 100 | 0.488 | > 100 |
| C=C1C(=O)O[C@H]2[C@H]1CC/C(COC(=O)NCc1c[nH]c3ccc(OC)cc13)=C\CC[C@@]1(C)O[C@@H]21 | 10.6 | 24.1 | 1.34 | 2.73 | 1.74 | 3.12 | 4.76 | 18.4 | 0.89 | 2.38 | 7.87 | 28.8 | 0.255 | 1.88 | 1.95 | 3.84 | 1.02 | 2.71 | 2.14 | 4.9 |
| COc1ccccc1/C=C1\CCC(CN(C)C)C1=O (centres undefined) |  | 36.4 |  | 7.85 |  | 18 |  | 26.7 |  | 3.56 |  | 90.3 |  | 6.68 |  | 15.7 |  | 16.1 |  | 24.2 |
| COc1cccc(C2=NN(C(C)=O)C(c3cc(OC)c(OC)c(OC)c3)C2)c1 (centres undefined) | 0.827 |  | 1.42 | > 100 | 7.65 | > 100 | 3.18 | > 100 | 3.97 | > 66.3 | 1.9 | > 20.1 | 1.55 | 6.51 | 25.8 | > 100 | 3.1 | > 100 | 8.09 | > 100 |
| O=Cc1ncc(-c2ccc(C(F)(F)F)cc2)c(NC2CCCCCC2)n1 | > 10 | > 10 | > 10 | > 10 | > 10 | > 10 | > 10 | > 10 | > 10 | > 10 | > 10 | > 10 | > 10 | > 10 | > 10 | > 10 | > 10 | > 10 | > 10 | > 10 |
| Oc1ccc(Cl)cc1Cc1cc(Cl)cc(Cc2cc(Cl)ccc2O)c1O |  | 10.9 |  | 12.2 |  | 10.3 |  | 14.6 |  | 3.32 |  | 6.82 |  | 8.38 |  | 9.17 |  | 10.4 |  | 12.2 |
| CN(C)c1cc2c(Nc3ccc4nc(Cc5ccccc5)[nH]c4c3)ncnc2cn1 | > 15.6 | > 25 | > 16.6 | > 25 | 12.2 | > 25 | > 25 | > 25 | 10.9 | > 25 | > 25 | > 25 | > 25 | > 25 | 4.9 | > 25 | 11.9 | > 23 | 16.6 | > 25 |
